Data set [1] concerns the target T1, EGFR (Homo sapiens, UniProt P00533). The experiment in a line: In vitro inhibition of EGFR, Flash Plate or glass-fiber filter technology (C2). It counts as biochemical. Set-up: 0.5 μg EGFR-kinase domain/well. Particulars: EGFR-kinase domain, 5.0 μM unlabeled ATP, read-out: Kinase activity.(C2): pIC50 (converted). The method, boiled down:
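Two radiometric formats were used, each with 5.0 μM unlabeled ATP, [33P]ATP, 0.5 μg EGFR kinase domain and compounds from 1·10^−10 to 1·10^−6 M. Glass-fiber filter: 25° C for 10 min, pH 7.5, Mn2+/Mg2+, acid-stopped, phosphorimager read. Streptavidin Flash Plate: biotinylated poly(GT), pH 8.0, 30° C for 60 min.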
Target sequence in this assay (P00533 712-979 limits assumed): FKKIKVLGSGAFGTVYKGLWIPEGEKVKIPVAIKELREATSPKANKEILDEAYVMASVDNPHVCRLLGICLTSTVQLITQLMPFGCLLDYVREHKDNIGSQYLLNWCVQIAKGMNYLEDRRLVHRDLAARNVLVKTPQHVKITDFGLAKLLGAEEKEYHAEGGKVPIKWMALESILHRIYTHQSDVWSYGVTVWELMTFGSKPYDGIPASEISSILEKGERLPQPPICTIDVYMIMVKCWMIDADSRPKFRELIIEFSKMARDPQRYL

Data set [2] deals with T1, EGFR. The experiment in a line: In vitro inhibition of EGFR using a scintillant proximity assay (C1). It is filed as biochemical. Set-up: 0.5 μg EGFR-kinase domain/well. The following applies: EGFR-kinase domain, poly(GT)biotin, 5.0 μM unlabeled ATP, 30° C. 60 minutes; read-out: EGFR SPA (C1): IC50. The protocol:
In the present EGFR SPA kinase reaction assay, a kinase substrate consisting of biotinylated poly(L-glutamic acid-L-tyrosine) (poly(GT)biotin), is incubated with the aforementioned protein in the presence of (^33P) radiolabeled ATP. (^33P) phosphorylation of the substrate is subsequently measured as light energy emitted using streptavidin-coated SPA beads (Amersham Pharmacia Biotech) by trapping and quantifying the binding of the biotin tagged and radiolabeled substrate.
The EGFR SPA kinase reaction is performed at 30° C. for 60 minutes in a 96-well microtiter plate. For each of the tested compounds a full dose response 1·10^−6M to 1·10^−10M has been performed. IRESSA® and Tarceva™ (erlotinib) were used as reference compounds. The 100 μl reaction volume contains 54.5 mM TrisHCl pH 8.0, 10 mM MgCl2, 100 μM Na3VO4, 5.0 μM unlabeled ATP, 1 mM DTT, 0.009% BSA, 0.8 μCi ^33P-ATP, 0.35 μg/well poly(GT)biotin and 0.5 μg EGFR-kinase domain/well. The reaction is stopped by adding to each well 100 μl of the streptavidin beads (10 mg/ml in PBS+100 mM EDTA+100 μM ATP). The plates are than shaked at 300 rpm for 30 min to allow binding of the biotinylated substrate to the streptavidin coated beads. Than the beads are allowed to settle at the bottom of the plate for 30 minutes. The microtiterplates are centrifuges at 800 rpm for 10 minutes and the amount of phosphorylated (^33P) Poly(GT)biotin is determined by counting (30 sec/well) in a microtiterplate scintillation counter.
Target sequence in this assay (P00533 712-979 limits assumed): as above

For another data set, the system named is SKOV3 cells. Briefly: Serum starved proliferation assay on the ovarian carcinoma SKOV3 cells (C3). It counts as cell-based. The following applies: Homo sapiens, SK-OV-3, 72 h, EGF stimulated (100 ng/ml, 72 hours, serum free) or 72 hours with compounds; MTT cell viability assay; read-out: SKOV3 cell (C3): pIC50 (converted). The essentials: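 MTT viability read-out in SKOV3 cells after a 24 h pre-incubation in 10% FCS, in one of two formats. EGF-stimulated version: serum-free compound exposure followed by 100 ng/ml EGF (final) for 72 h at 37 °C, 5% CO2. Otherwise, compound alone for 72 h.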

Another data set has as its system A431 cells. The experiment in a line: Proliferation assay on the squamous carcinoma cell line A431 cells (C5). The following applies: Homo sapiens, A-431; 72 hours with compounds; MTT cell viability assay; read-out: A431 cell (C5): pIC50 (converted). It counts as cell-based. How it is done:
The squamous carcinoma cell line (A431) was used in a cell proliferation assay, to assess the inhibitory effect of the compounds in whole cells.
In a first step the A431 cells were incubated for 24 hours in the presence of 10% FCS serum. In the second step the cells were incubated for 72 hours with the compounds to be tested at a final concentration of 100 ng/ml. The effect of the compounds on the cell proliferation was finally assessed in a standard MTT cell viability assay.
(In general: Tetrazolium dyes change colour on reduction, which living cells bring about.)

The target in data set [3] is T1, EGFR. The experiment in a line: ELISA assay of EGFR tyrosine kinase activity (C4). It is filed as biochemical. Particulars: poly(Glu, Tyr) coated plate, 5 μM ATP, room temperature 10 min. The protocol: The EGFR ELISA is generally described by Yang, E. B. et al., 2001, Biochimica et Biophysica Acta, 1550; 144.
For the determination of EGFR tyrosine kinase activity, 100 μl of 0.4 μg/ml poly(Glu, Tyr) in PBS was coated per well on a 96-well microplate at 37° C. overnight. […] After washing three times with PBS the plates were either used immediately or stored at 4° C. Prior to the determination of the EGFR tyrosine kinase activity, the coated plates were washed two times with PBS. Next, to each well 88 μl of an ATP dilution (50 mM Tris HCl pH 8.0, 10 mM MgCl2, 100 μM Na3VO4, 1 mM DTT, 5 μM ATP) and 2 μl with various concentrations of the compounds to be tested, were added. The EGFR tyrosine kinase-catalysed reaction was started by the addition of 10 μl of diluted EGFR (dilution→0.05 μg per well enzyme diluted in 50 mM TrisHCl pH 8.0+0.1% BSA). After incubation at room temperature for 10 min, the reaction was stopped by washing five times with PBS with 0.1% Tween 20. Subsequently […] of recombinant anti-phosphotyrosine horseradish peroxidase conjugate (1:2500) in BSA (10 mg/ml in PBS) was added. After incubation at room temperature for 1 h, the microplate was washed five times with PBS/Tween 20. After the microplate was incubated with 100 μl of TMB-ELISA (1-step Ultra TMB-ELISA, Pierce) until colour development, 100 μl of 0.5 M H2SO4 was added to stop the reaction, and it was read in a microplate reader at 450-655 nm.
Target sequence in this assay (P00533 25-1210): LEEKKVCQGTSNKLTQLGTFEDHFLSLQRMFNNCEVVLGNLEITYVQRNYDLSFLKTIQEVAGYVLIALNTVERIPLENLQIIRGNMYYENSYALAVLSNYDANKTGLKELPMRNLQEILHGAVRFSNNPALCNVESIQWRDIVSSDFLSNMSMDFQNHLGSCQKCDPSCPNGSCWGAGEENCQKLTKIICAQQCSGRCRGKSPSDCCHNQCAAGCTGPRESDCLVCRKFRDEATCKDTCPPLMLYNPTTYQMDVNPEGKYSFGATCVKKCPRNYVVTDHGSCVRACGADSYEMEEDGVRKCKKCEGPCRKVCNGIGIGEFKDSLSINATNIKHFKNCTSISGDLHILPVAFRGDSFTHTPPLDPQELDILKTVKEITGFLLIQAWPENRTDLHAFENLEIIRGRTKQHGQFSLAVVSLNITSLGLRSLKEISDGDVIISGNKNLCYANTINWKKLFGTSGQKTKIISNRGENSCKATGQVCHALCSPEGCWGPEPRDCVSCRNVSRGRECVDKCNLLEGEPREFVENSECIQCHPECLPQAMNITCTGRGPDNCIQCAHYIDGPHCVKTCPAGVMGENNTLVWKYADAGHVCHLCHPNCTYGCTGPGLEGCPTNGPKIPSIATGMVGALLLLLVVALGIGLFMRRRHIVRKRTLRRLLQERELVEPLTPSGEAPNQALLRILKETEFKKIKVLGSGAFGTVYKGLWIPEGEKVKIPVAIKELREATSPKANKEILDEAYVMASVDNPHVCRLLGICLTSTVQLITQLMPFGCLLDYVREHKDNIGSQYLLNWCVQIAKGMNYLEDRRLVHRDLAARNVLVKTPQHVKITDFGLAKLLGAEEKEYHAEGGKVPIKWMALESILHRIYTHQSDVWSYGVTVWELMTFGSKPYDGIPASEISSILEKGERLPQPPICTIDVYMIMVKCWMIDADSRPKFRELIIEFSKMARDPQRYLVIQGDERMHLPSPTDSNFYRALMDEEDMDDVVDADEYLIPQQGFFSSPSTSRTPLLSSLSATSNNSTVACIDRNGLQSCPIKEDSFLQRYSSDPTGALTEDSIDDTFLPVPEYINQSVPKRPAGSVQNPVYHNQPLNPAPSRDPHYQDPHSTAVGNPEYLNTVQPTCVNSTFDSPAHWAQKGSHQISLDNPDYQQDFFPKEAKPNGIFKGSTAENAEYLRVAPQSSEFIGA
In general terms: In an ELISA, binding on a coated surface is turned into a signal by an enzyme label.

Consider `COc1cc2ncnc3c2cc1OC(=O)CCCCCOc1c(C)cccc1N3` [Compound 1, 4,6-ethanediylidene-19H-pyrimido[4,5-b][6,13,1]benzodioxaazacyclo-pentadecin-8(9H)-one, 10,11,12,13-tetrahydro-20-methoxy-15-methyl-], for which the IC50 on EGFR [1] is > 10000 nM; on EGFR [2], > 100 nM; in the data set with SKOV3 cells it was > 2000 nM; in the data set with A431 cells, > 1000 nM; on EGFR [3], > 1000 nM.
Consider `COc1cc2ncnc3c2cc1OCCCCCCOc1c(Cl)cccc1N3` [Compound 2, 4,6-ethanediylidene-19H-pyrimido[4,5-b][6,13,1]benzodioxaazacyclo-pentadecine, 15-chloro-8,9,10,11,12,13-hexahydro-20-methoxy-], for which the melting point fell in the range of 255.5 to 260.2 °C. At EGFR [1], the IC50 is 100 nM. Also, the IC50 on EGFR [2] is > 100 nM. For the same molecule, the IC50 in the data set with SKOV3 cells is > 2000 nM. Moreover, the IC50 in the data set on A431 cells was > 1000 nM. Besides, the IC50 against EGFR [3] is > 1000 nM.
On to `COc1cc2ncnc3c2cc1OCCCCCCOc1ccc(Cl)cc1N3` [Compound 3, 4,6-ethanediylidene-19H-pyrimido[4,5-b][6,13,1]benzodioxaazacyclo-pentadecine, 17-chloro-8,9,10,11,12,13-hexahydro-20-methoxy-], for which the melting point lay in the range of 241.5 to 242.7 °C. The IC50 at EGFR [1] is 15.8 nM. The IC50 at EGFR [2] was 3.61 nM. Besides, the IC50 in the data set on SKOV3 cells was 1350 nM. Also, the IC50 in the data set with A431 cells was > 1000 nM. Moreover, the IC50 against EGFR [3] is > 1000 nM.
Molecule `COc1cc2ncnc3c2cc1OCCCCCCCOc1ccc(Cl)cc1N3` [Compound 7, 4,6-ethanediylidene-8H,20H-pyrimido[4,5-b][6,14,1]benzo-dioxaazacyclohexadecine, 18-chloro-9,10,11,12,13,14-hexahydro-21-methoxy-] came in with a melting point of 240.6 to 243.7 °C. For the same molecule, the IC50 at EGFR [1] is 79.4 nM. At EGFR [2], the IC50 stood at 6.64 nM. Also, the IC50 in the data set on SKOV3 cells was > 10000 nM. For the same molecule, on EGFR [3], the IC50 is > 1000 nM.
For the molecule `COc1cc2ncnc3c2cc1OCCCCCCCCOc1ccc(Cl)cc1N3` [Compound 8, 4,6-ethanediylidene-21H-pyrimido[4,5-b][6,15,1]benzodioxaazacyclo-heptadecine, 19-chloro-8,9,10,11,12,13,14,15-octahydro-22-methoxy-], the melting point lay in the range of 147.7 to 151.1 °C. At EGFR [1], the IC50 is 31.6 nM. The IC50 at EGFR [2] came out at 3.97 nM. For the same molecule, the IC50 in the data set with SKOV3 cells was > 10000 nM. Besides, the IC50 against EGFR [3] came out at 329 nM.

The term melting point denotes the temperature, or range, at which the solid turns liquid.

For the origin of these results see patent US8394786B2, “Quinazoline derivatives” (Janssen Pharmaceutica N.V., priority 2003, dated 2013).
